pIC50: −log10 of the molar value.

This assay concerns JAK1-dependent STAT6 phosphorylation downstream of IL-13 stimulation in TF-1 human erythroleukemia cells. In words: cells. To be noted: TF-1, read-out: IL-13-pSTAT6 IC50.
Description: Inhibitor potency (EC50) was determined in cell-based assays designed to measure JAK1 dependent STAT phosphorylation.
Prior to use in the assays, TF-1 cells were starved of GM-CSF overnight in OptiMEM medium (Life Technologies, Grand Island, N.Y.) supplemented with 0.5% charcoal/dextran stripped fetal bovine serum (FBS), 0.1 mM non-essential amino acids (NEAA), and 1 mM sodium pyruvate. The assays were run in 384-well plates in serum-free OptiMEM medium using 300,000 cells per well. In a second assay approach, BEAS-2B human bronchial epithelial cells obtained from ATCC were plated at 100,000 cells per well of a 96-well plate one day prior to the experiment. The BEAS-2B assay was run in complete growth medium (bronchial epithelial basal medium plus bulletkit; Lonza; Basel, Switzerland).
Test compounds were serially diluted 1:2 in DMSO and then diluted 1:50 in medium just before use. Diluted compounds were added to the cells, for a final DMSO concentration of 0.2%, and incubated for 30 min (for the TF-1 assay) or 1 hr (for the BEAS-2B assay) at 37° C. Then, cells were stimulated with human recombinant cytokine at their respective EC90 concentrations, as previously determined for each individual lot. […] The resultant samples were frozen in the plates at −80° C. Compound mediated inhibition of STAT6 phosphorylation was measured in the cell lysates using MesoScale Discovery (MSD) technology (Gaithersburg, Md.).
Turning to `O=C(CCC(F)(F)F)N1CC=C(c2cccn3nc(Nc4ccc(C(=O)N5CCC6(CCCNC6)CC5)cc4)nc23)CC1` [Example 2-191, 1-[4-[2-[4-(2,9-diazaspiro[5.5]undecane-9-carbonyl)anilino]-[1,2,4]triazolo[1,5-a]pyridin-8-yl]-3,6-dihydro-2H-pyridin-1-yl]-4,4,4-trifluoro-butan-1-one], the pIC50 is 7.20.
As for `O=C(NCC1CCCNC1)c1ccc(Nc2nc3c(C4=CCN(C(=O)CCC(F)(F)F)CC4)cccn3n2)cc1` (stereo not shown) [Example 2-192, N-(3-piperidylmethyl)-4-[[8-[1-(4,4,4-trifluorobutanoyl)-3,6-dihydro-2H-pyridin-4-yl]-[1,2,4]triazolo[1,5-a]pyridin-2-yl]amino]benzamide], the figure is 6.67; as for `O=C(NCCC1CCCNC1)c1ccc(Nc2nc3c(C4=CCN(C(=O)CCC(F)(F)F)CC4)cccn3n2)cc1` (stereo not shown) [Example 2-193, N-[2-(3-piperidyl)ethyl]-4-[[8-[1-(4,4,4-trifluorobutanoyl)-3,6-dihydro-2H-pyridin-4-yl]-[1,2,4]triazolo[1,5-a]pyridin-2-yl]amino]benzamide], 6.56; as for `NCCNC(=O)c1ccc(Nc2nc3c(C4=CCN(C(=O)CCC(F)(F)F)CC4)cccn3n2)cc1` [Example 2-194, N-(2-aminoethyl)-4-[[8-[1-(4,4,4-trifluorobutanoyl)-3,6-dihydro-2H-pyridin-4-yl]-[1,2,4]triazolo[1,5-a]pyridin-2-yl]amino]benzamide], 7.03.
As for `O=C(CCC(F)(F)F)N1CC=C(c2cccn3nc(Nc4ccc(C(=O)N5CCCNCC5)cc4)nc23)CC1` [Example 2-195, 1-[4-[2-[4-(1,4-diazepane-1-carbonyl)anilino]-[1,2,4]triazolo[1,5-a]pyridin-8-yl]-3,6-dihydro-2H-pyridin-1-yl]-4,4,4-trifluoro-butan-1-one], the pIC50 was 6.79.
As to `CC1CN(C(=O)c2ccc(Nc3nc4c(C5=CCN(C(=O)CCC(F)(F)F)CC5)cccn4n3)cc2)CCN1` (stereo not shown) [Example 2-196, 4,4,4-trifluoro-1-[4-[2-[4-(3-methylpiperazine-1-carbonyl)anilino]-[1,2,4]triazolo[1,5-a]pyridin-8-yl]-3,6-dihydro-2H-pyridin-1-yl]butan-1-one], the pIC50 was 7.52.
As for `O=C(CCC(F)(F)F)N1CC=C(c2cccn3nc(Nc4ccc(C(=O)N5CCC6(CCN6)CC5)cc4)nc23)CC1` [Example 2-197, 1-[4-[2-[4-(1,7-diazaspiro[3.5]nonane-7-carbonyl)anilino]-[1,2,4]triazolo[1,5-a]pyridin-8-yl]-3,6-dihydro-2H-pyridin-1-yl]-4,4,4-trifluoro-butan-1-one], the figure is 6.53.
As for `O=C(CCC(F)(F)F)N1CC=C(c2cccn3nc(Nc4ccc(C(=O)N5CCC6(CCCN6)CC5)cc4)nc23)CC1` [Example 2-198, 1-[4-[2-[4-(1,8-diazaspiro[4.5]decane-8-carbonyl)anilino]-[1,2,4]triazolo[1,5-a]pyridin-8-yl]-3,6-dihydro-2H-pyridin-1-yl]-4,4,4-trifluoro-butan-1-one], the figure is 7.27; as for `CN(Cc1ccccn1)C(=O)c1ccc(Nc2nc3c(C4=CCN(C(=O)CCC(F)(F)F)CC4)cccn3n2)cc1` [Example 2-199, N-methyl-N-(2-pyridylmethyl)-4-[[8-[1-(4,4,4-trifluorobulanoyl)-3,6-dihydro-2H-pyridin-4-yl]-[1,2,4]triazolo[1,5-a]pyridin-2-yl]amino]benzamide], 8.38; as for `O=C(CCC(F)(F)F)N1CC=C(c2cccn3nc(Nc4ccc(C(=O)N5CCN6CCCC6C5)cc4)nc23)CC1` (stereo not shown) [Example 2-200, 1-[4-[2-[4-(3,4,6,7,8,8a-hexahydro-1H-pyrrolo[1,2-a]pyrazine-2-carbonyl)anilino]-[1,2,4]triazolo[1,5-a]pyridin-8-yl]-3,6-dihydro-2H-pyridin-1-yl]-4,4,4-trifluoro-butan-1-one], 8.39.
With `CN1CC2CC(C1)N(C(=O)c1ccc(Nc3nc4c(C5=CCN(C(=O)CCC(F)(F)F)CC5)cccn4n3)cc1)C2` (stereo not shown) [Example 2-201, 4,4,4-trifluoro-1-[4-[2-[4-(3-methyl-3,6-diazabicyclo[3.2.1]octane-6-carbonyl)anilino]-[1,2,4]triazolo[1,5-a]pyridin-8-yl]-3,6-dihydro-2H-pyridin-1-yl]butan-1-one], the pIC50 was 8.22.
As for `O=C(CCC(F)(F)F)N1CC=C(c2cccn3nc(Nc4ccc(C(=O)N5CCN(C6CC6)CC5)cc4)nc23)CC1` [Example 2-202, 1-[4-[2-[4-(4-cyclopropylpiperazine-1-carbonyl)anilino]-[1,2,4]triazolo[1,5-a]pyridin-8-yl]-3,6-dihydro-2H-pyridin-1-yl]-4,4,4-trifluoro-butan-1-one], the figure is 7.94; as for `Cn1ccnc1CN1CCN(C(=O)c2ccc(Nc3nc4c(C5=CCN(C(=O)CCC(F)(F)F)CC5)cccn4n3)cc2)CC1` [Example 2-203, 4,4,4-trifluoro-1-[4-[2-[4-[4-[(1-methylimidazol-2-yl)methyl]piperazine-1-carbonyl]anilino]-[1,2,4]triazolo[1,5-a]pyridin-8-yl]-3,6-dihydro-2H-pyridin-1-yl]butan-1-one], 7.52.
With `CC(=O)N1CC2(C1)CN(C(=O)c1ccc(Nc3nc4c(C5=CCN(C(=O)CCC(F)(F)F)CC5)cccn4n3)cc1)C2` [Example 2-204, 1-[4-[2-[4-(6-acetyl-2,6-diazaspiro[3.3]heptane-2-carbonyl)anilino]-[1,2,4]triazolo[1,5-a]pyridin-8-yl]-3,6-dihydro-2H-pyridin-1-yl]-4,4,4-trifluoro-butan-1-one] the figure was 7.05.
Consider `CN1CC2CN(C(=O)c3ccc(Nc4nc5c(C6=CCN(C(=O)CCC(F)(F)F)CC6)cccn5n4)cc3)CC(C1)O2` [Example 2-205, 4,4,4-trifluoro-1-[4-[2-[4-(7-methyl-9-oxa-3,7-diazabicyclo[3.3.1]nonane-3-carbonyl)anilino]-[1,2,4]triazolo[1,5-a]pyridin-8-yl]-3,6-dihydro-2H-pyridin-1-yl]butan-1-one], for which the pIC50 is 8.00.
`Cc1cncc(CNC(=O)c2ccc(Nc3nc4c(C5=CCN(C(=O)CCC(F)(F)F)CC5)cccn4n3)cc2)c1` [Example 2-206, N-[(5-methyl-3-pyridyl)methyl]-4-[[8-[1-(4,4,4-trifluorobutanoyl)-3,6-dihydro-2H-pyridin-4-yl]-[1,2,4]triazolo[1,5-a]pyridin-2-yl]amino]benzamide]: the negative-log IC50 (pIC50) is 8.47.
Turning to `NCC1CN(C(=O)c2ccc(Nc3nc4c(C5=CCN(C(=O)CCC(F)(F)F)CC5)cccn4n3)cc2)C1` [Example 2-207, 1-[4-[2-[4-[3-(aminomethyl)azetidine-1-carbonyl]anilino]-[1,2,4]triazolo[1,5-a]pyridin-8-yl]-3,6-dihydro-2H-pyridin-1-yl]-4,4,4-trifluoro-butan-1-one], the pIC50 was 6.85.
`CC1CCN(C2CCN(C(=O)c3ccc(Nc4nc5c(C6=CCN(C(=O)CCC(F)(F)F)CC6)cccn5n4)cc3)CC2)CC1` [Example 2-208, 4,4,4-trifluoro-1-[4-[2-[4-[4-(4-methyl-1-piperidyl)piperidine-1-carbonyl]anilino]-[1,2,4]triazolo[1,5-a]pyridin-8-yl]-3,6-dihydro-2H-pyridin-1-yl]butan-1-one]: the pIC50 was 8.36.
On to `COCCN(C(=O)c1ccc(Nc2nc3c(C4=CCN(C(=O)CCC(F)(F)F)CC4)cccn3n2)cc1)C1CCN(C)CC1` [Example 2-209, N-(2-methoxyethyl)-N-(1-methyl-4-piperidyl)-4-[[8-[1-(4,4,4-trifluorobutanoyl)-3,6-dihydro-2H-pyridin-4-yl]-[1,2,4]triazolo[1,5-a]pyridin-2-yl]amino]benzamide], for which the pIC50 is 7.52.
On to `CCN(CC)C1CCN(C(=O)c2ccc(Nc3nc4c(C5=CCN(C(=O)CCC(F)(F)F)CC5)cccn4n3)cc2)C1` (stereo not shown) [Example 2-211, 1-[4-[2-[4-[3-(diethylamino)pyrrolidine-1-carbonyl]anilino]-[1,2,4]triazolo[1,5-a]pyridin-8-yl]-3,6-dihydro-2H-pyridin-1-yl]-4,4,4-trifluoro-butan-1-one], for which the pIC50 is 8.15.
As for `CN(CCc1cccnc1)C(=O)c1ccc(Nc2nc3c(C4=CCN(C(=O)CCC(F)(F)F)CC4)cccn3n2)cc1` [Example 2-212, N-methyl-N-[2-(3-pyridyl)ethyl]-4-[[8-[1-(4,4,4-trifluorobutanoyl)-3,6-dihydro-2H-pyridin-4-yl]-[1,2,4]triazolo[1,5-a]pyridin-2-yl]amino]benzamide], the pIC50 was 8.10.
With `CN1CCCCC1CNC(=O)c1ccc(Nc2nc3c(C4=CCN(C(=O)CCC(F)(F)F)CC4)cccn3n2)cc1` (stereo not shown) [Example 2-214, N-[(1-methyl-2-piperidyl)methyl]-4-[[8-[1-(4,4,4-trifluorobutanoyl)-3,6-dihydro-2H-pyridin-4-yl]-[1,2,4]triazolo[1,5-a]pyridin-2-yl]amino]benzamide] the figure was 8.26.
With `Cc1ccc(C2CCN(C(=O)c3ccc(Nc4nc5c(C6=CCN(C(=O)CCC(F)(F)F)CC6)cccn5n4)cc3)CC2)nc1` [Example 2-215, 4,4,4-trifluoro-1-[4-[2-[4-[4-(5-methyl-2-pyridyl)piperidine-1-carbonyl]anilino]-[1,2,4]triazolo[1,5-a]pyridin-8-yl]-3,6-dihydro-2H-pyridin-1-yl]butan-1-one] the figure was 7.87; with `Cc1cccc(CCNC(=O)c2ccc(Nc3nc4c(C5=CCN(C(=O)CCC(F)(F)F)CC5)cccn4n3)cc2)n1` [Example 2-216, N-[2-(6-methyl-2-pyridyl)ethyl]-4-[[8-[1-(4,4,4-trifluorobutanoyl)-3,6-dihydro-2H-pyridin-4-yl]-[1,2,4]triazolo[1,5-a]pyridin-2-yl]amino]benzamide], 8.13.
As for `CN(C)c1cc(CC2CCN(C(=O)c3ccc(Nc4nc5c(C6=CCN(C(=O)CCC(F)(F)F)CC6)cccn5n4)cc3)C2)ncn1` (stereo not shown) [Example 2-217, 1-[4-[2-[4-[3-[[6-(dimethylamino)pyrimidin-4-yl]methyl]pyrrolidine-1-carbonyl]anilino]-[1,2,4]triazolo[1,5-a]pyridin-8-yl]-3,6-dihydro-2H-pyridin-1-yl]-4,4,4-trifluoro-butan-1-one], the figure is 8.02.

For orientation: pIC50 means the negative decadic logarithm of the IC50, by convention in mol/L.
